Experimental data published in the NIST ThermoML archive (doi:10.1021/acs.jced.5b00197).

Experiment: refractive index (other wavelength) (dimensionless); xn = mol fraction of the nth substance listed
Settings: 94.64 kPa, Liquid, Standard Abbe refractometry

CC(=O)O [acetic acid] + Cc1ccccc1
refractive index
Settings | Wavelength=404.7 nm | Wavelength=435.8 nm | Wavelength=587.6 nm | Wavelength=632.8 nm | Wavelength=644 nm | Wavelength=706.5 nm
298.15 K, x1 = 0.146 | – | – | 1.48187 | 1.47884 | 1.47816 | 1.47502
298.15 K, x1 = 0.277 | – | – | 1.46821 | 1.46538 | 1.46473 | 1.46178
298.15 K, x1 = 0.397 | – | – | 1.45629 | 1.45365 | 1.45303 | 1.45023
298.15 K, x1 = 0.506 | – | – | 1.44342 | 1.44095 | 1.44038 | 1.43776
298.15 K, x1 = 0.605 | – | – | 1.43125 | 1.42896 | 1.42842 | 1.42598
298.15 K, x1 = 0.697 | – | – | 1.41881 | 1.41669 | 1.41619 | 1.4139
298.15 K, x1 = 0.782 | – | – | 1.40658 | 1.40463 | 1.40417 | 1.40417
298.15 K, x1 = 0.859 | – | – | 1.3946 | 1.39284 | 1.39242 | 1.39049
298.15 K, x1 = 0.897 | – | – | 1.38527 | 1.38364 | 1.38326 | 1.38144
298.15 K, x1 = 0.932 | – | – | 1.38035 | 1.37878 | 1.37842 | 1.37669
298.15 K, x1 = 0.967 | – | – | 1.37526 | 1.37375 | 1.37341 | 1.37177
298.15 K, x1 = 1 | – | – | 1.37018 | 1.36876 | 1.36844 | 1.36686
303.15 K, x1 = 0.146 | 1.50611 | 1.49841 | – | – | – | –
303.15 K, x1 = 0.277 | 1.4905 | 1.48332 | – | – | – | –
303.15 K, x1 = 0.397 | 1.47698 | 1.47026 | – | – | – | –
303.15 K, x1 = 0.506 | 1.46241 | 1.45621 | – | – | – | –
303.15 K, x1 = 0.605 | 1.44837 | 1.44266 | – | – | – | –
303.15 K, x1 = 0.697 | 1.4344 | 1.42918 | – | – | – | –
303.15 K, x1 = 0.782 | 1.42104 | 1.41634 | – | – | – | –
303.15 K, x1 = 0.859 | 1.40698 | 1.40281 | – | – | – | –
303.15 K, x1 = 0.897 | 1.39635 | 1.3926 | – | – | – | –
303.15 K, x1 = 0.932 | 1.3908 | 1.38725 | – | – | – | –
303.15 K, x1 = 0.967 | 1.38499 | 1.38168 | – | – | – | –
303.15 K, x1 = 1 | 1.37917 | 1.37611 | – | – | – | –
